# Data as given in US8568815B2, “Soluble complexes of curcumin” (Novobion Oy, priority 2008, dated 2013).
# Assay: Photostability, illumination with high intensity mercury lamp
# Type: physicochemical
# Conditions: methanol solution; dissolved in methanol (4 mmol/l), mercury lamp 200-600 nm; read-out: Half-life of decomposition during illumination
smiles,measurement,value
COc1cc(/C=C/C(=O)CC(=O)/C=C/c2ccc(O)c(OC)c2)ccc1O [curcumin],half-life at 4 mmol/l,1.08 h
